# From PubChem BioAssay AID1918991 (Molecular Pharmacology Branch, DTP, NCI, 2023)
# Test system: 186277-243-T-J2-PDC complex spheroid growth
# Test: Anticancer human tumor 186277-243-T-J2-PDC patient-derived colon adenocarcinoma cell line growth inhibition [AhR]
# Details: for IC50: curve of first compound; for viability, T/C: stronger effect = lower value
# Text: Multicellular complex tumor spheroid response to aryl hydrocarbon receptor antagonists in combination with a variety of drugs and investigational agents in selected tumor cell lines
# The current study was undertaken to assess response to aryl hydrocarbon receptor antagonists in combination with standard-of-care drugs and investigational agents in solid tumor complex spheroid models. Complex spheroids include a stromal component modeled by human endothelial cells (HUVEC) and fibroblasts modeled by human mesenchymal stem cells (MSCs). The concentration ranges selected for each drug and investigational agent were based upon clinically achievable concentrations if the clinical Cmax of the agent was known.
# Compounds. The drugs and investigational agents: BAY 2416964 (NSC825713), GNF351 (NSC835774), CH-223191 (NSC835775), CPI-455 (NSC825282), aza-TdCyd (NSC777586), decitabine (NSC127716), belinostat (NSC758774), entinostat (NSC756642), pevonedistat (NSC761192), tazemetostat (NSC777109), talazoparib (NSC765396), olaparib (NSC753686), selinexor (NSC780203), nedisertib (M3814, NSC802822), bortezomib (NSC756655), venetoclax (NSC766270), doxorubicin (NSC123127), elimusertib (BAY189344, NSC800525), ceralasertib (AZD6738, NSC777638), TAK-243 (NSC785004), alisertib (NSC759677), etoposide (NSC141540), topotecan (NSC609699), eribulin (NSC707389), gemcitabine (NSC613327), carboplatin (NSC241240), cisplatin (NSC119875), and SN-38 (NSC673596) were obtained from the National Cancer Institute (NCI) Developmental Therapeutics Program Chemical Repository (32). The FDA-approved anticancer drug set is available from the Developmental Therapeutics Program at https://dtp.cancer.gov/organization/dscb/obtaining/available plates.htm. […] The stock solutions were prepared in dimethyl sulfoxide (DMSO, Sigma-Aldrich, St. Louis, MO, cat. D2650), except for the platinum compounds which were prepared in saline (Quality Biological, Gaithersburg, MD, cat. 114-055-101), at 800-fold the tested concentration and stored at -70 degrees C prior to their use. All drugs and investigational agents were tested over a range starting from a high concentration at or near the clinical Cmax and decreasing in half-log increments. If the clinical Cmax for an agent had not been determined, the highest concentration tested was 10 microM (Table 1).
# Cell Culture. All cells were maintained in an incubator at 37 degrees C and 5% CO2 with 95% humidity. The PDC lines were cultured according to standard operating procedures established by the NCI PDMR (https://pdmr.cancer.gov). Briefly, all PDCs were thawed and cultured in Matrigel-coated flasks prepared with a working solution of 1X Ham's F-12 nutrient mix, without supplementation (Invitrogen, Waltham, MA, cat. 11765054), 100 U/mL penicillin-streptomycin (Invitrogen, cat. 15140122), and 2.5% Matrigel (Corning Inc., Corning, NY, cat. 354248) for the first three passages. All PDCs were cultured in complete DMEM/F-12 media containing advanced DMEM/F-12 (Invitrogen, cat. 12634028), 4.9% defined fetal bovine serum, heat inactivated (HyClone Laboratories Inc., Logan, UT, cat. SH30070.03HI), 389 ng/mL hydrocortisone (Sigma-Aldrich, cat. H4001), 9.7 ng/mL human EGF recombinant protein (Invitrogen, cat. PHG0313), 23.4 microg/mL adenine (Sigma-Aldrich, cat. A2786), 97.3 U/mL penicillin-streptomycin (Invitrogen, cat. 15140122), 1.9 mM L-glutamine (Invitrogen, cat. 25030081), and 9.7 microM Y-27632 dihydrochloride (Tocris Bioscience, Bristol, United Kingdom, cat. 1254). The PDCs were cultured in complete DMEM/F12 media without 10 microM Y-27632 dihydrochloride for at least two passages prior to the screen. The established cell lines NCI-H1341 and […] were cultured in DMEM/F-12, HEPES (Invitrogen, cat. 11330032), 5% defined fetal bovine serum (HyClone Laboratories Inc., cat. SH30070.03), ITS premix universal culture supplement [insulin (5 microg/mL), transferrin (5 microg/mL), and selenious acid (5 ng/mL)] […]
# [1] = second compound 0.1 µM, first compound 0.00316 µM
# [2] = second compound 0.1 µM, first compound 0.01 µM
# [3] = second compound 0.1 µM, first compound 0.0316 µM
# [4] = second compound 0.1 µM, first compound 0.1 µM
# [5] = second compound 0.316 µM, first compound 0.00316 µM
# [6] = second compound 0.316 µM, first compound 0.01 µM
# [7] = second compound 0.316 µM, first compound 0.0316 µM
# [8] = second compound 0.316 µM, first compound 0.1 µM
# [9] = second compound 1 µM, first compound 0.00316 µM
# [10] = second compound 1 µM, first compound 0.01 µM
# [11] = second compound 1 µM, first compound 0.0316 µM
# [12] = second compound 1 µM, first compound 0.1 µM
# [13] = second compound 3.16 µM, first compound 0.00316 µM
# [14] = second compound 3.16 µM, first compound 0.01 µM
# [15] = second compound 3.16 µM, first compound 0.0316 µM
# [16] = second compound 3.16 µM, first compound 0.1 µM
# [17] = second compound 10 µM, first compound 0.00316 µM
# [18] = second compound 10 µM, first compound 0.01 µM
# [19] = second compound 10 µM, first compound 0.0316 µM
# [20] = second compound 10 µM, first compound 0.1 µM
# [21] = second compound 0.1 µM, first compound 0.316 µM
# [22] = second compound 0.1 µM, first compound 1 µM
# [23] = second compound 0.1 µM, first compound 3.16 µM
# [24] = second compound 0.1 µM, first compound 10 µM
# [25] = second compound 0.316 µM, first compound 0.316 µM
# [26] = second compound 0.316 µM, first compound 1 µM
# [27] = second compound 0.316 µM, first compound 3.16 µM
# [28] = second compound 0.316 µM, first compound 10 µM
# [29] = second compound 1 µM, first compound 0.316 µM
# [30] = second compound 1 µM, first compound 1 µM
# [31] = second compound 1 µM, first compound 3.16 µM
# [32] = second compound 1 µM, first compound 10 µM
# [33] = second compound 3.16 µM, first compound 0.316 µM
# [34] = second compound 3.16 µM, first compound 1 µM
# [35] = second compound 3.16 µM, first compound 3.16 µM
# [36] = second compound 3.16 µM, first compound 10 µM
# [37] = second compound 10 µM, first compound 0.316 µM
# [38] = second compound 10 µM, first compound 1 µM
# [39] = second compound 10 µM, first compound 3.16 µM
# [40] = second compound 10 µM, first compound 10 µM
# 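Also: spheroids exposed to compounds for seven days before the viability read.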
# 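For viability, T/C in this document: luminescent signal used as a stand-in for viable cell amount; 100% = DMSO vehicle control wells.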
SMILES,IC50 (second compound 0.1 µM) [µM],IC50 (second compound 0.316 µM) [µM],IC50 (second compound 1 µM) [µM],IC50 (second compound 3.16 µM) [µM],IC50 (second compound 10 µM) [µM],"viability, T/C [3] [%]","viability, T/C [4] [%]","viability, T/C [7] [%]","viability, T/C [8] [%]","viability, T/C [11] [%]","viability, T/C [12] [%]","viability, T/C [15] [%]","viability, T/C [16] [%]","viability, T/C [19] [%]","viability, T/C [20] [%]","viability, T/C [21] [%]","viability, T/C [22] [%]","viability, T/C [25] [%]","viability, T/C [26] [%]","viability, T/C [29] [%]",also measured
CC[C@@]1(O)C(=O)OCc2c1cc1n(c2=O)Cc2cc3c(CN(C)C)c(O)ccc3nc2-1 + CC(CO)NC(=O)c1cc(-c2ccc(Cl)cc2)nn(-c2cnn(C)c2)c1=O,0.0141,0.0145,0.015,0.0113,0.0127,32.2,21.5,30.1,22.2,27.6,22,24.7,22.7,26.5,24.1,,,,,,"viability, T/C (second compound 0.1 µM, first compound 0.000316 µM): 101%; viability, T/C (second compound 0.1 µM, first compound 0.001 µM): 101%; viability, T/C [1]: 89.5%; viability, T/C [2]: 57.3%; viability, T/C (second compound 0.316 µM, first compound 0.000316 µM): 96.5%; viability, T/C (second compound 0.316 µM, first compound 0.001 µM): 102%; viability, T/C [5]: 93.5%; viability, T/C [6]: 59.6%; viability, T/C (second compound 1 µM, first compound 0.000316 µM): 90.4%; viability, T/C (second compound 1 µM, first compound 0.001 µM): 102%; viability, T/C [9]: 91%; viability, T/C [10]: 62.2%; viability, T/C (second compound 3.16 µM, first compound 0.000316 µM): 88.3%; viability, T/C (second compound 3.16 µM, first compound 0.001 µM): 102%; viability, T/C [13]: 77.1%; viability, T/C [14]: 55.5%; viability, T/C (second compound 10 µM, first compound 0.000316 µM): 75%; viability, T/C (second compound 10 µM, first compound 0.001 µM): 75.4%; viability, T/C [17]: 78.3%; viability, T/C [18]: 56.2%"
COc1cc(C2c3cc4c(cc3C(OC3OC5COC(C)OC5C(O)C3O)C3COC(=O)C23)OCO4)cc(OC)c1O (stereo not given) + CC(CO)NC(=O)c1cc(-c2ccc(Cl)cc2)nn(-c2cnn(C)c2)c1=O,0.279,0.281,0.26,0.197,0.0816,102,83.9,92.8,90.6,89.2,80.2,84.5,71.6,68.3,47.4,45.4,20.3,45,17.8,42.6,"viability, T/C [23]: 15.5%; viability, T/C [24]: 8.93%; viability, T/C [27]: 17.6%; viability, T/C [28]: 8.41%; viability, T/C [30]: 20.7%; viability, T/C [31]: 16.4%; viability, T/C [32]: 8.47%; viability, T/C [33]: 33.7%; viability, T/C [34]: 20.2%; viability, T/C [35]: 14.5%; viability, T/C [36]: 7.04%; viability, T/C [37]: 25.2%; viability, T/C [38]: 19.2%; viability, T/C [39]: 10.4%; viability, T/C [40]: 6.47%"
COc1cccc2c1C(=O)c1c(O)c3c(c(O)c1C2=O)CC(O)(C(=O)CO)CC3OC1CC(N)C(O)C(C)O1 (stereo not given) + CC(CO)NC(=O)c1cc(-c2ccc(Cl)cc2)nn(-c2cnn(C)c2)c1=O,< 0.0316,< 0.0316,< 0.0316,< 0.0316,< 0.0316,39.3,28.8,38.3,27.1,37.9,29,33.9,27.5,28.2,24.3,7.36,0.1,7.61,0.08,8.06,"viability, T/C [23]: 0.08%; viability, T/C [24]: 0.32%; viability, T/C [27]: 0.06%; viability, T/C [28]: 0.6%; viability, T/C [30]: 0.09%; viability, T/C [31]: 0.37%; viability, T/C [32]: 0.22%; viability, T/C [33]: 7.26%; viability, T/C [34]: 0.08%; viability, T/C [35]: 0.09%; viability, T/C [36]: 0.64%; viability, T/C [37]: 4.49%; viability, T/C [38]: 0.2%; viability, T/C [39]: 0.17%; viability, T/C [40]: 0.32%"
Nc1ncn(C2CC(O)C(CO)O2)c(=O)n1 (stereo not given) + CC(CO)NC(=O)c1cc(-c2ccc(Cl)cc2)nn(-c2cnn(C)c2)c1=O,> 1,> 1,> 1,> 1,> 1,89.3,85.1,85.8,84.9,96.1,80.9,94.3,82.5,90.9,79,64.5,52.1,63.6,52.8,66.2,"viability, T/C [1]: 110%; viability, T/C [2]: 103%; viability, T/C [5]: 92%; viability, T/C [6]: 82.3%; viability, T/C [9]: 84.6%; viability, T/C [10]: 97.6%; viability, T/C [30]: 55.2%; viability, T/C [13]: 91.5%; viability, T/C [14]: 95.1%; viability, T/C [33]: 66.8%; viability, T/C [34]: 59.4%; viability, T/C [17]: 90.3%; viability, T/C [18]: 81.2%; viability, T/C [37]: 63.1%; viability, T/C [38]: 51.7%"
